Read-outs that look alike come from different tables or passages of the source.
Columns and labels:
134 cancer cell lines = assay: Cell viability assay (ATPlite, 72 hours), IC50 on cancer cell line panel
[1] = target: panel of 255 wild-type kinases (Homo sapiens, UniProt Q9H422); assay: Kinase panel profiling at 1 µmol/L (MSA or IMAP), percentage inhibition; assay type: biochemical; conditions: kinase HIPK3; 1 µmol/L single concentration; read-out: %-inhibition at 1 µmol/L, HIPK3
[2] = target: panel of 255 wild-type kinases (Homo sapiens, UniProt P48729); assay: as above; assay type: biochemical; conditions: kinase CK1α; 1 µmol/L single concentration; read-out: %-inhibition at 1 µmol/L, CK1α
[3] = target: panel of 255 wild-type kinases (Homo sapiens, UniProt Q13882); assay: as above; assay type: biochemical; conditions: BRK kinase assay; 1 µmol/L single concentration; read-out: %-inhibition BRK
[4] = target: panel of 255 wild-type kinases (Homo sapiens, UniProt Q16816); assay: as above; assay type: biochemical; conditions: kinase PHKG1; 1 µmol/L single concentration; read-out: %-inhibition at 1 µmol/L, PHKG1
[5] = target: panel of 255 wild-type kinases (Homo sapiens, UniProt P06241); assay: as above; assay type: biochemical; conditions: kinase FYN [isoform a]; 1 µmol/L single concentration; read-out: %-inhibition at 1 µmol/L, FYN [isoform a]

IC50 (134 cancer cell lines; Homo sapiens, MeWo, read-out: IC50 in cell proliferation assay, MeWo cell line): > 31.6 µM
IC50 (134 cancer cell lines; Homo sapiens, NCCIT, read-out: IC50 in cell proliferation assay, NCC-IT cell line): > 31.6 µM
IC50 (134 cancer cell lines; Homo sapiens, NCI-H82, read-out: IC50 in cell proliferation assay, cell line NCI-H82): > 31.6 µM
IC50 (134 cancer cell lines; Homo sapiens, NCI-H460, read-out: IC50 in cell proliferation assay, NCI-H460 cell line): > 31.6 µM
IC50 (134 cancer cell lines; Homo sapiens, NCI-H661, read-out: IC50 in cell proliferation assay, NCI-H661 cell line): > 31.6 µM
IC50 (134 cancer cell lines; Homo sapiens, NCI-H716, read-out: IC50 in cell proliferation assay, cell line NCI-H716 (FGFR2-COL14A1)): > 31.6 µM
IC50 (134 cancer cell lines; Homo sapiens, NCI-H1650, read-out: IC50 in cell proliferation assay, NCI-H1650 cell line (EGFR exon19del)): > 31.6 µM
IC50 (134 cancer cell lines; Homo sapiens, NCI-H1975, read-out: IC50 in cell proliferation assay, NCI-H1975 cell line (EGFR p.L858R + p.T790M)): > 31.6 µM
IC50 (134 cancer cell lines; Homo sapiens, NCI-H2228, read-out: IC50 in cell proliferation assay, NCI-H2228 cell line (EML4-ALK)): > 31.6 µM
IC50 (134 cancer cell lines; Homo sapiens, OVCAR-3, read-out: IC50 in cell proliferation assay, cell line OVCAR-3): > 31.6 µM
IC50 (134 cancer cell lines; Homo sapiens, PFSK-1, read-out: IC50 in cell proliferation assay, cell line PFSK-1): > 31.6 µM
IC50 (134 cancer cell lines; Homo sapiens, RL95-2, read-out: IC50 in cell proliferation assay, cell line RL95-2 (EGFR p.A289V)): > 31.6 µM
IC50 (134 cancer cell lines; Homo sapiens, RPMI-7951, read-out: IC50 in cell proliferation assay, cell line RPMI-7951 (BRAF p.V600E)): > 31.6 µM
IC50 (134 cancer cell lines; Homo sapiens, RS4-11, read-out: IC50 in cell proliferation assay, cell line RS4;11): > 31.6 µM
IC50 (134 cancer cell lines; Homo sapiens, Rec1, read-out: IC50 in cell proliferation assay, cell line REC-1): > 31.6 µM
IC50 (134 cancer cell lines; Homo sapiens, SHP77, read-out: IC50 in cell proliferation assay, cell line SHP-77): > 31.6 µM
IC50 (134 cancer cell lines; Homo sapiens, SK-BR-3, read-out: IC50 in cell proliferation assay, cell line SK-BR-3 (ERBB2 amplification)): > 31.6 µM
IC50 (134 cancer cell lines; Homo sapiens, SK-N-AS, read-out: IC50 in cell proliferation assay, cell line SK-N-AS): > 31.6 µM
IC50 (134 cancer cell lines; Homo sapiens, SK-N-FI, read-out: IC50 in cell proliferation assay, cell line SK-N-FI): > 31.6 µM
IC50 (134 cancer cell lines; Homo sapiens, SK-N-MC, read-out: IC50 in cell proliferation assay, cell line SK-N-MC): > 31.6 µM
IC50 (134 cancer cell lines; Homo sapiens, SK-N-SH, read-out: IC50 in cell proliferation assay, cell line SK-N-SH (ALK p.F1174L)): > 31.6 µM
IC50 (134 cancer cell lines; Homo sapiens, SNU-5, read-out: IC50 in cell proliferation assay, cell line SNU-5 (MET amplification)): > 31.6 µM
IC50 (134 cancer cell lines; Homo sapiens, SNU-16, read-out: IC50 in cell proliferation assay, cell line SNU-16 (FGFR2 amplification)): > 31.6 µM
IC50 (134 cancer cell lines; Homo sapiens, SNU-C2B, read-out: IC50 in cell proliferation assay, cell line SNU-C2B (EGFR p.R165Q)): > 31.6 µM
IC50 (134 cancer cell lines; Homo sapiens, SU-DHL-1, read-out: IC50 in cell proliferation assay, cell line SU-DHL-1 (NPM1-ALK)): > 31.6 µM
IC50 (134 cancer cell lines; Homo sapiens, SU-DHL-6, read-out: IC50 in cell proliferation assay, cell line SU-DHL-6): > 31.6 µM
IC50 (134 cancer cell lines; Homo sapiens, SUP-T1, read-out: IC50 in cell proliferation assay, cell line SUP-T1): > 31.6 µM
IC50 (134 cancer cell lines; Homo sapiens, SW48, read-out: IC50 in cell proliferation assay, cell line SW48 (EGFR p.G719S)): > 31.6 µM
IC50 (134 cancer cell lines; Homo sapiens, SW480, read-out: IC50 in cell proliferation assay, cell line SW480): > 31.6 µM
IC50 (134 cancer cell lines; Homo sapiens, SW626, read-out: IC50 in cell proliferation assay, cell line SW626): > 31.6 µM
IC50 (134 cancer cell lines; Homo sapiens, SW780, read-out: IC50 in cell proliferation assay, cell line SW780 (FGFR3-BAIAP2L1)): > 31.6 µM
IC50 (134 cancer cell lines; Homo sapiens, SW837, read-out: IC50 in cell proliferation assay, cell line SW837): > 31.6 µM
IC50 (134 cancer cell lines; Homo sapiens, SW872, read-out: IC50 in cell proliferation assay, cell line SW872 (BRAF p.V600E)): > 31.6 µM
IC50 (134 cancer cell lines; Homo sapiens, SW900, read-out: IC50 in cell proliferation assay, cell line SW900): > 31.6 µM
IC50 (134 cancer cell lines; Homo sapiens, SW948, read-out: IC50 in cell proliferation assay, cell line SW948): > 31.6 µM
IC50 (134 cancer cell lines; Homo sapiens, SW982, read-out: IC50 in cell proliferation assay, cell line SW982 (BRAF p.V600E)): > 31.6 µM
IC50 (134 cancer cell lines; Homo sapiens, SW-620, read-out: IC50 in cell proliferation assay, cell line SW620): > 31.6 µM
IC50 (134 cancer cell lines; Homo sapiens, T98G, read-out: IC50 in cell proliferation assay, cell line T98G): > 31.6 µM
IC50 (134 cancer cell lines; Homo sapiens, TCC-SUP, read-out: IC50 in cell proliferation assay, cell line TCCSUP): > 31.6 µM
IC50 (134 cancer cell lines; Homo sapiens, THP-1, read-out: IC50 in cell proliferation assay, cell line THP-1): > 31.6 µM
IC50 (134 cancer cell lines; Homo sapiens, U2OS, read-out: IC50 in cell proliferation assay, cell line U2OS): > 31.6 µM
IC50 (134 cancer cell lines; Homo sapiens, U-87 MG, read-out: IC50 in cell proliferation assay, cell line U-87MG ATCC): > 31.6 µM
IC50 (134 cancer cell lines; Homo sapiens, U-118-MG, read-out: IC50 in cell proliferation assay, cell line U-118MG): > 31.6 µM
IC50 (134 cancer cell lines; Homo sapiens, UMUC3, read-out: IC50 in cell proliferation assay, cell line UM-UC-3): > 31.6 µM
IC50 (134 cancer cell lines; Hs766T, read-out: IC50 in cell proliferation assay, Hs 766T cell line): > 31.6 µM
IC50 (134 cancer cell lines; L-82, read-out: IC50 in cell proliferation assay, L-82 cell line (NPM1-ALK)): > 31.6 µM
IC50 (134 cancer cell lines; Rh30, read-out: IC50 in cell proliferation assay, cell line Rh30): > 31.6 µM
IC50 (134 cancer cell lines; read-out: IC50 in cell proliferation assay, 11-18 cell line (EGFR p.L858R)): > 31.6 µM
IC50 (134 cancer cell lines; read-out: IC50 in cell proliferation assay, Hs 852.T cell line): > 31.6 µM
IC50 (134 cancer cell lines; read-out: IC50 in cell proliferation assay, JAR cell line): > 31.6 µM
IC50 (134 cancer cell lines; read-out: IC50 in cell proliferation assay, cell line 5637): > 31.6 µM
IC50 (134 cancer cell lines; read-out: IC50 in cell proliferation assay, cell line A-388): > 31.6 µM
IC50 (134 cancer cell lines; read-out: IC50 in cell proliferation assay, cell line DB): > 31.6 µM
IC50 (134 cancer cell lines; read-out: IC50 in cell proliferation assay, cell line DEL (NPM1-ALK)): > 31.6 µM
IC50 (134 cancer cell lines; read-out: IC50 in cell proliferation assay, cell line ES-2 (BRAF p.V600E)): > 31.6 µM
IC50 (134 cancer cell lines; read-out: IC50 in cell proliferation assay, cell line PA-1): > 31.6 µM
IC50 (134 cancer cell lines; read-out: IC50 in cell proliferation assay, cell line PC-3): > 31.6 µM
IC50 (134 cancer cell lines; read-out: IC50 in cell proliferation assay, cell line RD): > 31.6 µM
IC50 (134 cancer cell lines; read-out: IC50 in cell proliferation assay, cell line RKO (BRAF p.V600E)): > 31.6 µM
IC50 (134 cancer cell lines; read-out: IC50 in cell proliferation assay, cell line RL): > 31.6 µM
IC50 (134 cancer cell lines; read-out: IC50 in cell proliferation assay, cell line RT-4 (FGFR3-TACC3)): > 31.6 µM
IC50 (134 cancer cell lines; read-out: IC50 in cell proliferation assay, cell line SR (NPM1-ALK)): > 31.6 µM
IC50 (134 cancer cell lines; read-out: IC50 in cell proliferation assay, cell line T24): > 31.6 µM
IC50 (134 cancer cell lines; read-out: IC50 in cell proliferation assay, cell line TT (RET p.C634W)): > 31.6 µM
IC50 (134 cancer cell lines; read-out: IC50 in cell proliferation assay, cell line VA-ES-BJ): > 31.6 µM
inhibition at 1 µM [1]: -4%
inhibition at 1 µM [2]: 1.46%
inhibition at 1 µM [3]: 4.64%
inhibition at 1 µM [4]: 1.81%
inhibition at 1 µM [5]: 1.82%
SMILES: O=C(Nc1cnn2ccc(N3CCC[C@@H]3c3cc(F)ccc3F)nc12)N1CC[C@H](O)C1 [larotrectinib]
